Measured values: US20060069132A1, “Azolecarboxamide herbicides” (priority 2004, published 2006)

Assays:
barnyardgrass [1] = experiment: Test B pre-/postemergence herbicide test; assay type: in vivo, Echinochloa crus-galli; settings: for Plant response rating, Barnyardgrass: preemergence; for Barnyardgrass plant response rating: postemergence, visual rating, scale 0 (no effect) to 100 (complete control)
In short: (§1)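 Species tested were Echinochloa crus-galli, Ipomoea coccinea, Xanthium strumarium and Oryza sativa, treated both before emergence and at the 1- to 4-leaf stage; rice and barnyardgrass were also tested under flooding at 2 leaves. Greenhouse incubation lasted 13–15 days before visual 0–100 scoring.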

wheat = experiment: Test B postemergence herbicide test; assay type: in vivo, Triticum aestivum; set-up: key to Wheat plant response rating: 0 = no effect, 100 = complete control; settings: postemergence, 500 g ai/ha; visual rating, scale 0 (no effect) to 100 (complete control)
In short: (§2)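 Plants grow to 1- to 4-leaf stage (2–18 cm) for postemergence spraying, or to 2-leaf stage for the paddy test. Formulated compound is applied. Greenhouse holding lasts 13–15 days. Response is scored visually relative to controls, 0 no effect to 100 complete control; a dash means no result.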

barnyardgrass [2] = experiment: Test A pre-/postemergence herbicide test; assay type: in vivo, Echinochloa crus-galli
In short: (§3)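 Plants are held in greenhouse about ten days after treatment, then compared with untreated controls and scored 0 (no effect) to 100 (complete control). Preemergence dosing is a directed soil spray on sown sandy loam; postemergence dosing is spray to runoff at 2–10 cm height.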

cocklebur = experiment: Test B pre-/postemergence herbicide test; assay type: in vivo, Xanthium strumarium; settings: for Plant response rating, Cocklebur: preemergence; for Cocklebur plant response rating: postemergence, visual rating, scale 0 (no effect) to 100 (complete control)
In short: as §1

giant foxtail [3] = experiment: Test A pre-/postemergence herbicide test; assay type: in vivo, Setaria faberi
In short: as §3

redroot pigweed = experiment: Test A pre-/postemergence herbicide test; assay type: in vivo, Amaranthus retroflexus
In short: as §3

morningglory [4] = experiment: Test A pre-/postemergence herbicide test; assay type: in vivo, Ipomoea spp.
In short: as §3

large crabgrass [5] = experiment: Test A pre-/postemergence herbicide test; assay type: in vivo, Digitaria sanguinalis
In short: as §3

wild oat = experiment: Test B postemergence herbicide test; assay type: in vivo, Avena fatua; settings: postemergence, visual rating, scale 0 (no effect) to 100 (complete control)
In short: as §2

Surinam grass = experiment: Test B pre-/postemergence herbicide test; assay type: in vivo, Urochloa decumbens; settings: for Plant response rating, Surinam Grass: preemergence; for Surinam Grass plant response rating: postemergence, visual rating, scale 0 (no effect) to 100 (complete control)
In short: (§4)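 Greenhouse pot assay with simultaneous preemergence (treated seed) and postemergence (2–18 cm seedlings) applications of surfactant-containing, non-phytotoxic solvent formulations. Response scored visually 13–15 days later on a 0–100 scale, 100 meaning complete control.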

barnyardgrass [6] = experiment: Test B flooded paddy test; assay type: in vivo, Echinochloa crus-galli; settings: 1000 g ai/ha, visual rating, scale 0 to 100 (0 no effect, 100 complete control), 13 to 15 days
In short: as §2

rice = experiment: Test B flooded paddy test; assay type: in vivo, Oryza sativa; settings: 1000 g ai/ha, visual rating, scale 0 to 100 (0 no effect, 100 complete control), 13 to 15 days
In short: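 Greenhouse test; postemergence application to plants at 1–4 leaves (2–18 cm); paddy species at 2 leaves; evaluated visually vs controls at 13–15 days; scale 0–100 (100 = complete control).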

large crabgrass [7] = experiment: Test B pre-/postemergence herbicide test; assay type: in vivo, Digitaria sanguinalis; settings: for Plant response rating, Crabgrass, Large: preemergence; for Crabgrass, Large plant response rating: postemergence, visual rating, scale 0 (no effect) to 100 (complete control)
In short: as §4

velvetleaf [8] = experiment: Test A pre-/postemergence herbicide test; assay type: in vivo, Abutilon theophrasti
In short: as §3

morningglory [9] = experiment: Test B pre-/postemergence herbicide test; assay type: in vivo, Ipomoea coccinea; settings: for Plant response rating, Morningglory: preemergence; for Morningglory plant response rating: postemergence, visual rating, scale 0 (no effect) to 100 (complete control)
In short: as §1

[10] = test system: small flower umbrella sedge; experiment: Test B flooded paddy test; assay type: in vivo, Cyperus difformis; settings: 1000 g ai/ha, visual rating, scale 0 to 100 (0 no effect, 100 complete control), 13 to 15 days
In short: as §2

giant foxtail [11] = experiment: Test B pre-/postemergence herbicide test; assay type: in vivo, Setaria faberi; settings: for Plant response rating, Foxtail, Giant: preemergence; for Foxtail, Giant plant response rating: postemergence, visual rating, scale 0 (no effect) to 100 (complete control)
In short: as §4

corn = experiment: Test B pre-/postemergence herbicide test; assay type: in vivo, Zea mays; settings: for Plant response rating, Corn: preemergence; for Corn plant response rating: postemergence, visual rating, scale 0 (no effect) to 100 (complete control)
In short: as §4

blackgrass = experiment: Test B postemergence herbicide test; assay type: in vivo, Alopecurus myosuroides; settings: postemergence, visual rating, scale 0 (no effect) to 100 (complete control)
In short: as §2

ducksalad = experiment: Test B flooded paddy test; assay type: in vivo, Heteranthera limosa; settings: 1000 g ai/ha, visual rating, scale 0 to 100 (0 no effect, 100 complete control), 13 to 15 days
In short: as §2

lambsquarters = experiment: Test B pre-/postemergence herbicide test; assay type: in vivo, Chenopodium album; settings: for Plant response rating, Lambsquarters: preemergence; for Lambsquarters plant response rating: postemergence, visual rating, scale 0 (no effect) to 100 (complete control)
In short: as §4

pigweed = experiment: Test B pre-/postemergence herbicide test; assay type: in vivo, Amaranthus retroflexus; settings: for Plant response rating, Pigweed: preemergence; for Pigweed plant response rating: postemergence, visual rating, scale 0 (no effect) to 100 (complete control)
In short: as §4

velvetleaf [12] = experiment: Test B pre-/postemergence herbicide test; assay type: in vivo, Abutilon theophrasti; settings: for Plant response rating, Velvetleaf: preemergence; for Velvetleaf plant response rating: postemergence, visual rating, scale 0 (no effect) to 100 (complete control)
In short: as §4

[13] = 500 g ai/ha, visual rating 0-100, 0 no effect, 100 complete control
[14] = 125 g ai/ha, 0 to 100 scale, 0 is no effect, 100 is complete control
[15] = Postemergence, 500 g ai/ha, 0 to 100 scale, 0 no effect, 100 complete control
[16] = Postemergence, 2000 g ai/ha, 0 to 100 scale, 0 no effect, 100 complete control
[17] = Preemergence, 500 g ai/ha, visual rating, 0 to 100 scale (0 no effect, 100 complete control)
[18] = Preemergence, 2000 g ai/ha, visual rating, 0 to 100 scale (0 no effect, 100 complete control)
[19] = preemergence, 500 g ai/ha, visual injury, 0 to 100 scale (0 no effect, 100 complete control)

Structure (SMILES): CC(=NO)c1ccnc(NC(=O)c2cc(C(C)(C)C)nn2C)n1 [Compound 164]
- Plant response rating, Barnyardgrass (barnyardgrass [1]; [13]): 0
- Barnyardgrass plant response rating (barnyardgrass [1]; 125 g ai/ha): 0
- Barnyardgrass plant response rating (barnyardgrass [1]; 500 g ai/ha): 0
- Plant response rating, Barnyardgrass (barnyardgrass [1]; [14]): 0
- Wheat plant response rating (wheat): 0
- Barnyardgrass plant response rating (barnyardgrass [2]; [15]): 10
- Plant response rating, Barnyardgrass (barnyardgrass [2]; [16]): 10
- Barnyardgrass plant response rating (barnyardgrass [2]; [17]): 0
- Barnyardgrass plant response rating (barnyardgrass [2]; [18]): 0
- Plant response rating, Cocklebur (cocklebur; [13]): 0
- Cocklebur plant response rating (cocklebur; 125 g ai/ha): 0
- Cocklebur plant response rating (cocklebur; 500 g ai/ha): 0
- Plant response rating, Cocklebur (cocklebur; [14]): 0
- Foxtail, Giant plant response rating (giant foxtail [3]; [15]): 0
- Plant response rating, Foxtail, Giant (giant foxtail [3]; [16]): 0
- Foxtail, Giant plant response rating (giant foxtail [3]; [17]): 0
- Foxtail, Giant plant response rating (giant foxtail [3]; [18]): 0
- Pigweed plant response rating (redroot pigweed; [15]): 0
- Plant response rating, Pigweed (redroot pigweed; [16]): 0
- Pigweed plant response rating (redroot pigweed; [18]): 0
- Pigweed plant response rating (redroot pigweed; [19]): 0
- Morningglory plant response rating (morningglory [4]; [15]): 10
- Plant response rating, Morningglory (morningglory [4]; [16]): 5
- Morningglory plant response rating (morningglory [4]; [17]): 0
- Morningglory plant response rating (morningglory [4]; [18]): 0
- Crabgrass, Large plant response rating (large crabgrass [5]; [15]): 10
- Plant response rating, Crabgrass, Large (large crabgrass [5]; [16]): 10
- Crabgrass, Large plant response rating (large crabgrass [5]; [17]): 0
- Crabgrass, Large plant response rating (large crabgrass [5]; [18]): 0
- Oat, Wild plant response rating (wild oat; 125 g ai/ha): 0
- Oat, Wild plant response rating (wild oat; 500 g ai/ha): 0
- Plant response rating, Surinam Grass (Surinam grass; [13]): 0
- Surinam Grass plant response rating (Surinam grass; 125 g ai/ha): 0
- Surinam Grass plant response rating (Surinam grass; 500 g ai/ha): 10
- Plant response rating, Surinam Grass (Surinam grass; [14]): 0
- Barnyardgrass plant response rating (barnyardgrass [6]): 0
- Rice plant response rating (rice): 0
- Plant response rating, Crabgrass, Large (large crabgrass [7]; [13]): 0
- Crabgrass, Large plant response rating (large crabgrass [7]; 125 g ai/ha): 0
- Crabgrass, Large plant response rating (large crabgrass [7]; 500 g ai/ha): 0
- Plant response rating, Crabgrass, Large (large crabgrass [7]; [14]): 0
- Velvetleaf plant response rating (velvetleaf [8]; [15]): 5
- Plant response rating, Velvetleaf (velvetleaf [8]; [16]): 0
- Velvetleaf plant response rating (velvetleaf [8]; [18]): 0
- Velvetleaf plant response rating (velvetleaf [8]; [19]): 0
- Plant response rating, Morningglory (morningglory [9]; [13]): 0
- Morningglory plant response rating (morningglory [9]; 125 g ai/ha): 0
- Morningglory plant response rating (morningglory [9]; 500 g ai/ha): 0
- Plant response rating, Morningglory (morningglory [9]; [14]): 0
- Sedge, Umbrella plant response rating [10]: 0
- Plant response rating, Foxtail, Giant (giant foxtail [11]; [13]): 0
- Foxtail, Giant plant response rating (giant foxtail [11]; 125 g ai/ha): 0
- Foxtail, Giant plant response rating (giant foxtail [11]; 500 g ai/ha): 0
- Plant response rating, Foxtail, Giant (giant foxtail [11]; [14]): 0
- Plant response rating, Corn (corn; [13]): 0
- Corn plant response rating (corn; 125 g ai/ha): 0
- Corn plant response rating (corn; 500 g ai/ha): 10
- Plant response rating, Corn (corn; [14]): 0
- Blackgrass plant response rating (blackgrass; 125 g ai/ha): 0
- Blackgrass plant response rating (blackgrass; 500 g ai/ha): 0
- Ducksalad plant response rating (ducksalad): 0
- Plant response rating, Lambsquarters (lambsquarters; [13]): 0
- Lambsquarters plant response rating (lambsquarters; 125 g ai/ha): 0
- Lambsquarters plant response rating (lambsquarters; 500 g ai/ha): 10
- Plant response rating, Lambsquarters (lambsquarters; [14]): 0
- Plant response rating, Pigweed (pigweed; [13]): 0
- Pigweed plant response rating (pigweed; 125 g ai/ha): 0
- Pigweed plant response rating (pigweed; 500 g ai/ha): 0
- Plant response rating, Pigweed (pigweed; [14]): 0
- Plant response rating, Velvetleaf (velvetleaf [12]; [13]): 0
- Velvetleaf plant response rating (velvetleaf [12]; 125 g ai/ha): 0
- Velvetleaf plant response rating (velvetleaf [12]; 500 g ai/ha): 0
- Plant response rating, Velvetleaf (velvetleaf [12]; [14]): 0
